{
  "source": "patent US7960369B2",
  "about": "“Receptor function regulator” (Takeda Pharmaceutical Company Limited, priority 2002, dated 2011)",
  "key": {"[1]": {"system": "siRNA-introduced MIN6 cell", "experiment": "Insulin secretion enhancing activity of fatty acid in siRNA-introduced MIN6", "type": "cell-based, mouse", "method": "(§1) The expression amount of mouse GPR40-GFP was detected by the following enzyme immunoassay. The culture supernatant was discarded, washed with HBSS (Invitrogen), fixed with 0.01% glutaraldehyde (Wako Pure Chemical Industries, Ltd.) for 5 min., and blocked with PBS (TAKARA SHUZO) containing 2% BSA. 500-fold diluted anti-GFP monoclonal antibody 3E6 (NIPPON GENE CO., LTD.) was added and the cells were incubated at room temperature for 2 hrs., washed and 500-fold diluted HRP-labeled anti-mouse IgG antibody (ICN) was added, and the cells were incubated at room temperature for 2 hrs. After washing, TMB microwell peroxydase substrate (Funakoshi) was added and, after incubation for 30 min., sulfuric acid was added to stop the color developing reaction, and the absorbance at 450 nm was measured.\n(§2) Mouse pancreatic β cell line MIN6 cultured in a flask was detached with PBS containing 2.5 mM EDTA, and seeded and incubated in a 96 well plate for 2 days. The medium used was obtained by adding 15% fetal bovine serum (ThermoTrace), […] 2-mercaptoethanol (Invitrogen), 20 mM HEPES pH 7.3, 100 U/ml penicillin and 100 μg/ml streptomycin to Dulbecco's Modified Eagle Medium (DMEM, Invitrogen) containing 4.5 g/l of glucose. The cells were washed twice with modified Krebs-Ringer bicarbonate buffer (KRBH, 116 mM NaCl, 4.7 mM KCl, 1.2 mM KH2PO4, 1.2 mM MgSO4, 2.5 mM CaCl2, 25 mM NaHCO3, 24 mM HEPES pH 7.3) and preincubated at 37° C. under 5% CO2 conditions for 30 min. Fatty acid diluted and prepared with a buffer obtained by adding 22 mM glucose to the above-mentioned KRBH was added to the cell after preincubation and the cells were incubated at 37° C. under 5% CO2 conditions for 90 min. After incubation, the cell supernatant was recovered and cryopreserved. The insulin content of the supernatant was measured using a commercially available insulin immunoassay kit (Amersham Pharmacia Biotech).\nInsulin secretion enhancing activity in MIN6 cell, into which m40i103 was introduced using HVJ Envelope VECTOR KIT GenomONE based on the method of Experimental Example 5, was examined. The insulin secretion enhancing activity by fatty acid was examined by the method of Experimental Example 6."}, "human-derived GPR40": {"target": "T1, human-derived GPR40 (Homo sapiens, UniProt O14842)", "T1 construct": "expressed in transfected cells; host or cells: CHO-K1, transient transfection with lipofectamine", "T1 sequence (O14842 whole entry)": "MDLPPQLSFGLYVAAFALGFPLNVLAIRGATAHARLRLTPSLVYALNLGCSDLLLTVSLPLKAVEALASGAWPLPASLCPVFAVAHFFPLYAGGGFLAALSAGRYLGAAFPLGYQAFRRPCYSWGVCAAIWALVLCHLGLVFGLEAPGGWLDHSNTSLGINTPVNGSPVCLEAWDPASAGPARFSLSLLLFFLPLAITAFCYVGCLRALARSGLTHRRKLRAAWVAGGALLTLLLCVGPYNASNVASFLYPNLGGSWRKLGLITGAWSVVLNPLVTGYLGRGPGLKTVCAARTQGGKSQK", "experiment": "Reactivity of fatty acid to human-derived GPR40, intracellular calcium by FLIPR in transfected CHO-K1 cells", "type": "cell-based", "settings": "for response (increase in intracellular calcium concentration) of CHO-K1 cell expressing the GPR40 receptor: added at 10^−5M-10^−6M, FLIPR, control-vector cells showed no response; for activity in intracellular calcium ion mobilization assay using CHO cell expressing GPR40 (GPR40 agonistic activity): as stated in Experimental Example 6", "method": "Unless specifically indicated, CHO-K1 cell line was cultured using Ham's F-12 medium (Invitrogen) containing 10% fetal calf serum (Invitrogen). The day before transfection, 4.5×10^5 per 10 cm^2 of cells were seeded, and incubated at 37° C. for not less than 15 hrs in a CO2 incubator adjusted to 5% CO2 concentration. The transfection was performed using a lipofectamine reagent (Invitrogen) and according to the reagent attached method. When a 6-well plate was used for a culture plate, transfection was performed in the following manner. First two 1.5 ml volume tubes were prepared, and 100 μl of Opti-MEM-I medium (Invitrogen) was dispensed. Then, […] of an expression vector was added to one tube and 6 μl of a lipofectamine reagent was added to the other tube. They were mixed and stood still at room temperature for 20 min. A mixed solution for transfection containing this solution and Opti-MEM-I medium (800 μl) was added to CHO-K1 cell previously washed with Opti-MEM-I medium, and incubated in a CO2 incubator for 6 hrs. The incubated cells were rinsed with PBS (Invitrogen), detached with 0.05% trypsin-EDTA solution (Invitrogen), recovered by centrifugation. The obtained cells were counted, diluted such that 5×10^4 cells were contained per 200 μl of the medium, dispensed to black walled 96-well plate (Costar) at 200 μl per well, incubated overnight in a CO2 incubator. Various test samples were added to CHO-K1 cells transiently expressing the receptor by the above-mentioned transfection step, and changes in the intracellular calcium concentration then was measured using FLIPR (Molecular Device). For measurement of changes in intracellular calcium concentration by FLIPR, the following pretreatment was applied. First, an assay buffer for adding fluorescence dye Fluo-3AM (DOJIN) to the cell, or washing the cell immediately before FLIPR assay was prepared. To a solution (hereinafter HBSS/HEPES solution) obtained by adding 20 ml of 1M HEPES (pH 7.4) (DOJIN) to 1000 ml of HBSS (Invitrogen) was added a solution (10 ml) obtained by dissolving probenecid (710 mg, Sigma) in 1N NaOH (5 ml) and adding and mixing with HBSS/HEPES solution (5 ml) and the obtained solution was used as an assay buffer. Then, Fluo-3AM (50 μg) was dissolved in 21 μl of DMSO (DOJIN), and an equal amount of 20% pluronic acid (Molecular Probes) was added. The mixture was added to an assay buffer (10.6 ml) supplemented with 105 μl of fetal calf serum to give a fluorescence dye solution. The medium of the CHO-KL cell after transfection treatment was removed, a fluorescence dye solution was immediately dispensed at 100 μl per well and incubated in a CO2 incubator for 1 hr to incorporate the fluorescence dye into the cell. The incubated cells were washed with the above-mentioned assay buffer and set on FLIPR. The test sample to be added to receptor expressing CHO-KL cell was prepared using the assay buffer and simultaneously set on FLIPR. After the above-mentioned pretreatment, changes in the intracellular calcium concentration after addition of various test samples were measured by FLIPR."}, "[2]": {"system": "mouse pancreatic β cell line MIN6", "experiment": "Promotion of insulin secretion from MIN6 (insulin immunoassay)", "type": "cell-based", "settings": "MIN6, KRBH with 22 mM glucose, 90 min", "method": "as §2\nas §2, with “(KBH,” for “(KRBH,”, “The compound” for “Fatty acid”"}, "[3]": {"system": "mouse insulinoma MIN6 cell", "experiment": "Insulin secretagogue effect of free fatty acid in mouse insulinoma MIN6 cell (RIA)", "type": "cell-based", "settings": "300 μM-1000 μM free fatty acid-BSA (4:1), 11 mM glucose, 90 min (or 60 min)", "method": "Unless otherwise specified, MIN6 cell was incubated in DMEM (high glucose, Invitrogen) containing 15% FCS (Trace Scientific Ltd.), 55 μM 2-mercaptoethanol, 100 U/ml penicillin, and 100 μg/ml streptomycin. Min6 cells were seeded in a 96 well plate at 10^5 cells per well, and incubated at 37° C. for 3 days in a CO2 incubator adjusted to 5% CO2 concentration. The medium was exchanged to RPMI1640 (glucose-free, Invitrogen) containing 10% FCS (Trace Scientific Ltd.), 5.5 mM glucose, 100 U/ml penicillin and 100 μg/ml streptomycin and the cells were further incubated for 24 hrs. The medium was aspirated, free fatty acid-bovine serum albumin (BSA) mixed solution (4:1, molar ratio) diluted with RPMI1640 (glucose-free, Invitrogen) containing 10% FCS (Trace Scientific Ltd.), 11 mM glucose, 100 U/ml penicillin, and 100 μg/ml streptomycin was added to the cells and reacted at 37° C. for 90 min. (or 60 min.) in a CO2 incubator adjusted to 5% CO2 concentration. The 96 well plate after reaction was centrifuged at 1500 rpm for 5 min. and the culture supernatant was recovered. The insulin amount secreted in this culture supernatant liquid was determined by radioimmunoassay (RIA) using a rat insulin RIA system (Amersham Pharmacia Biotech)."}, "[4]": {"system": "mouse GPR40-GFP fused protein", "experiment": "Suppression of expression of mouse GPR40-GFP fused protein by siRNA in CHO cells (enzyme immunoassay)", "type": "cell-based", "settings": "siRNA 2.86 Pmol/0.5 μl or 8.57 Pmol/1.5 μl introduced into mouse GPR40-GFP expressing CHO cell; absorbance at 450 nm", "method": "as §1, with “CHO cell expressing fused protein of mouse GPR40 and GFP prepared by a method known per se was seeded in a 96 well plate at 3×10^4/well and incubated for one day. siRNA of various sequences (Dharmacon) (concentration of 2.86 Pmol/0.5 μl or 8.57 Pmol/1.5 μl) prepared using HVJ Envelope VECTOR KIT GenomONE™ ([…] SANGYO) and according to the report of Elbasir et al. (Nature 411 (6836), 494-498 (2001)) was introduced into the cells and the cells were further incubated for one day. The expression” for “The expression”"}, "[5]": {"settings": "MIN6 into which GPR40 specific siRNA m40i103 was introduced"}, "[6]": {"settings": "MIN6 into which random sequence Scramble II duplex siRNA was introduced"}},
  "data": [
    {"compound": "CCCCC/C=C\\C/C=C\\CCCCCCCC(=O)O", "note": "[linoleic acid]", "values": [
      {"measurement": "insulin secretion enhancing activity of fatty acid", "setting": "[1]; [5]", "result": "no longer showed insulin secretion enhancing activity"},
      {"measurement": "insulin secretion enhancing activity of fatty acid", "setting": "[1]; [6]", "result": "retention of the insulin secretion enhancing activity"},
      {"measurement": "response (increase in intracellular calcium concentration) of CHO-K1 cell expressing the GPR40 receptor", "setting": "human-derived GPR40", "result": "specifically responds"},
      {"measurement": "activity in intracellular calcium ion mobilization assay using CHO cell expressing GPR40 (GPR40 agonistic activity)", "setting": "human-derived GPR40", "result": "remarkable activity"},
      {"measurement": "insulin secretion enhancing activity", "setting": "[2]", "result": "significant insulin secretion enhancing activity"}
    ]},
    {"compound": "CCCCCCCC/C=C\\CCCCCCCC(=O)O", "note": "[oleic acid]", "values": [
      {"measurement": "insulin secretion by MIN6 cell", "setting": "[3]", "result": "promoted"},
      {"measurement": "response (increase in intracellular calcium concentration) of CHO-K1 cell expressing the GPR40 receptor", "setting": "human-derived GPR40", "result": "specifically responds"},
      {"measurement": "activity in intracellular calcium ion mobilization assay using CHO cell expressing GPR40 (GPR40 agonistic activity)", "setting": "human-derived GPR40", "result": "remarkable activity"},
      {"measurement": "insulin secretion enhancing activity", "setting": "[2]", "result": "significant insulin secretion enhancing activity"}
    ]},
    {"compound": "CCCCCCCCCCCCCCCC(=O)O", "note": "[palmitic acid]", "values": [
      {"measurement": "insulin secretion by MIN6 cell", "setting": "[3]", "result": "promoted"}
    ]},
    {"compound": "CCCCC/C=C\\C/C=C\\C/C=C\\CCCCC(=O)O", "note": "[γ-linolenic acid]", "values": [
      {"measurement": "insulin secretion by MIN6 cell", "setting": "[3]", "result": "promoted"},
      {"measurement": "insulin secretion enhancing activity of fatty acid", "setting": "[1]; [5]", "result": "no longer showed insulin secretion enhancing activity"},
      {"measurement": "insulin secretion enhancing activity of fatty acid", "setting": "[1]; [6]", "result": "retention of the insulin secretion enhancing activity"},
      {"measurement": "activity in intracellular calcium ion mobilization assay using CHO cell expressing GPR40 (GPR40 agonistic activity)", "setting": "human-derived GPR40", "result": "remarkable activity"},
      {"measurement": "insulin secretion enhancing activity", "setting": "[2]", "result": "significant insulin secretion enhancing activity"}
    ]},
    {"compound": "m40i103: \"a mouse GPR40 specific siRNA (sense strand is SEQ ID NO: 23, antisense strand is SEQ ID NO: 24)\" (sense CGCCAGUUGUGACAUUCUUTT; antisense TTGCGGUCAACACUGUAAGAA; chemistry not given here; one strand is listed 3' to 5')", "values": [
      {"measurement": "effect of siRNA introduction on insulin secretion enhancing activity by linoleic acid and γ-linolenic acid", "setting": "[1]; siRNA introduced into MIN6 with HVJ Envelope VECTOR KIT GenomONE", "result": "no longer showed insulin secretion enhancing activity"},
      {"measurement": "mouse GPR40-GFP expression amount", "setting": "[4]", "result": "lower GPR40-GFP expression amount"}
    ]},
    {"compound": "m40i256: mouse GPR40 specific siRNA \"(sense strand is SEQ ID NO: 25, antisense strand is SEQ ID NO: 26)\" (sense CUUGUUAGCCAUCCGAGGCTT; antisense TTGAACAATCGGTAGGCTCCG; chemistry not given here; one strand is listed 3' to 5')", "values": [
      {"measurement": "mouse GPR40-GFP expression amount", "setting": "[4]", "result": "lower GPR40-GFP expression amount"}
    ]}
  ]
}
